Experimental data as given in article PMC8704611, “Synthesis, Molecular Docking Analysis, and Biological Evaluations of Saccharide-Modified Sulfonamides as Carbonic Anhydrase IX Inhibitors” (International Journal of Molecular Sciences, 2021).
Where two headings read alike, the source gives them in different places.

Columns and labels:
MDA-MB-231 cells [1] = test: Cell migration (scratch wound) assay; format: cell-based; settings: MDA-MB-231, 400 μM, hypoxia
Procedure: Tumour cell migration is one of the basic biological characteristics of tumour cells. […] MDA-MB-231 was selected as the experimental cell line to explore the ability of 16a to reduce tumour cells migration under hypoxia.
MDA-MB-231 cells (1 × 10^5 cells/well) were cultured in 6-well plates and wounded by scratching with a pipette tip. The wounded cell monolayers were washed three times with PBS and incubated with serum-free medium.

MDA-MB-231 cells [2] = test: CCK-8 cell viability assay; format: cell-based; settings: Homo sapiens, MDA-MB-231, 400 μM, 48 h
Procedure: (§1) The CCK-8 assay was used to evaluate the cytotoxicity of compounds 16a, 16b, and 16e on the breast cancer cell line MDA-MB-231 and colon cancer cell line HT-29. MDA-MB-231 and HT-29 are tumour cells that have been reported to express CA IX. We cultivated them under normoxia and hypoxia respectively and then evaluated the effects of the compounds on tumour cell viability at different concentrations.
(§2) Cell viability was tested by CCK-8 assay. The MDA-MB-231, HT-29 and MG-63 cell lines were provided by KeyGEN BioTECH Ltd. (Nanjing, Jiangsu, China). The cancer cell suspension was prepared to 5.0 × 10^4 cells/mL. After adding 100 μL cell suspension into each well of 96-well plates, the 96-well plates were placed in the incubator at 37 °C and 5% CO2 for 24 h. The compounds were diluted to the required concentration with the medium, and 100 μL of the corresponding medium was added to each well. Meanwhile, the negative control group was set up. The plates were incubated in normoxia or hypoxia for 48 h. The CCK-8 solution (10 μL) was added to each well, and the cells were incubated for another 3 h. After removing the bubbles in each well, cell viability was assessed by measuring the absorbance at 450 nm wavelength using a microplate reader. The hypoxia atmosphere consisted of 0.5% O2, 5% CO2, and 94.5% N2. The normoxia atmosphere was air.

HT-29 cells [3] = test: CCK-8 cell viability assay; format: cell-based; settings: for decrease in cell viability: HT-29, highest concentration of 400 μM; for viability at 400 µM: Homo sapiens, HT-29, 400 μM, 48 h
Procedure: as §1, §2

MDA-MB-231 cells [4] = test: Measurement of extracellular pH; format: cell-based; settings: for effect on extracellular pH: MDA-MB-231, 0.1 mM and 1.0 mM; for Extracellular pH, Hypoxic condition: hypoxia, control 6.84; for Extracellular pH, Normoxic condition: normoxia, control 7.06
Procedure: (§3) The main role of CA IX and XII in tumour development is to regulate the pH of the tumour growth microenvironment so that tumour cells are in a weakly acidic environment. Such an acidic environment is conducive to the growth of tumour cells and protects tumour cells from being killed by chemotherapeutics.
(§4) The changes in extracellular pH were evaluated according to previously published procedures. Cancer cells were grown in the medium containing 10% FBS and incubated in 6-well plates for 12 h. After removing the medium, we added fresh medium to the 6-well plates and incubated them for 48 h under hypoxia or normoxia. Then, we measured the pH of the culture medium immediately after collection. The tested compounds were dissolved in DMSO and diluted to the desired concentration. After the addition of tested compounds, the same procedure was carried out.

HT-29 cells [5] = test: Measurement of extracellular pH; format: cell-based; settings: for effect on extracellular pH: HT-29, 0.1 mM and 1.0 mM; for Extracellular pH, Hypoxic condition: hypoxia, control 6.81; for Extracellular pH, Normoxic condition: normoxia, control 7.02
Procedure: as §3, with “chemotherapeutics. We evaluated the effects of 0.1 mM and 1.0 mM of compounds 16a and 16b on the pH of the tumour cell growth environment under normoxia or hypoxia (detailed data is provided in the Tables S5 and S6 of supplementary information).” for “chemotherapeutics.”
as §4

hCA II = hCA II (Homo sapiens, UniProt P00918); test: CA inhibition assay (hydrolysis of 4-nitrophenylacetate); format: biochemical; settings: 4-NPA hydrolysis; three independent assays, relative errors 5–10%
Text: (§5) Carbonic anhydrase has the ability to catalyse the hydrolysis of 4-NPA. […] More detailed operations and specific parameters are as reported earlier.

hCA XII = hCA XII (Homo sapiens, UniProt O43570); test: as above; format: biochemical; settings: 4-NPA hydrolysis; three independent assays, relative errors 5–10%
Chain of hCA XII (O43570 25-354): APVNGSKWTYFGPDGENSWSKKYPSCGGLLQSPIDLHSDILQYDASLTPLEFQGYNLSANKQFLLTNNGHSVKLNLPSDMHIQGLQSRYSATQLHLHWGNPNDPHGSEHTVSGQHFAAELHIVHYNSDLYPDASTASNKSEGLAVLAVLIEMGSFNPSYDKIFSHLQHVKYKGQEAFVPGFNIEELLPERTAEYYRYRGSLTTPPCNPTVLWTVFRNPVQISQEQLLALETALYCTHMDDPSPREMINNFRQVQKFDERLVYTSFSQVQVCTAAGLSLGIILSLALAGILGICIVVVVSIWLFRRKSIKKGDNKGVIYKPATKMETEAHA
Text: as §5

hCA IX = hCA IX (Homo sapiens, UniProt Q16790); test: as above; format: biochemical; settings: 4-NPA hydrolysis; three independent assays, relative errors 5–10%
Text: as §5

MG-63 cells = test: CCK-8 cell viability assay; format: cell-based, human; settings: for viability at 800 µM: Homo sapiens, MG-63, 800 μM, 48 h
Procedure: The human osteosarcoma cell line MG-63 is a high-expressing cell line of CA IX and XII [24]. We selected compound 16b with the best activity in the above studies to study the cell viability inhibitory activity of MG-63 (detailed data is provided in the Table S4 of supplementary information).
as §2

[6] = hypoxia, read-out: cell viability, Hypoxic condition (%)
[7] = normoxia, read-out: cell viability, Normoxic condition (%)

SMILES | viability at 400 µM (MDA-MB-231 cells [2]; [6]) [%] | viability at 400 µM (MDA-MB-231 cells [2]; [7]) [%] | decrease in cell viability (HT-29 cells [3]) [%] | viability at 400 µM (HT-29 cells [3]; [6]) [%] | viability at 400 µM (HT-29 cells [3]; [7]) [%] | effect on extracellular pH (MDA-MB-231 cells [4]) | Extracellular pH, Hypoxic condition (MDA-MB-231 cells [4]; MDA-MB-231, 0.1 mM) | Extracellular pH, Normoxic condition (MDA-MB-231 cells [4]; MDA-MB-231, 0.1 mM) | Extracellular pH, Hypoxic condition (MDA-MB-231 cells [4]; MDA-MB-231, 1.0 mM) | Extracellular pH, Normoxic condition (MDA-MB-231 cells [4]; MDA-MB-231, 1.0 mM) | effect on extracellular pH (HT-29 cells [5]) | Extracellular pH, Hypoxic condition (HT-29 cells [5]; HT-29, 0.1 mM) | Extracellular pH, Normoxic condition (HT-29 cells [5]; HT-29, 0.1 mM) | Extracellular pH, Hypoxic condition (HT-29 cells [5]; HT-29, 1.0 mM) | Extracellular pH, Normoxic condition (HT-29 cells [5]; HT-29, 1.0 mM) | IC50 (hCA II) [nM] | IC50 (hCA XII) [nM] | IC50 (hCA IX) [nM] | viability at 800 µM (MG-63 cells; [6]) [%] | viability at 800 µM (MG-63 cells; [7]) [%] | other results
NS(=O)(=O)c1ccc(-n2cc(-c3ccc(NC(=O)CCC(=O)N[C@@H]4O[C@H](CO)[C@@H](O)[C@H](O)[C@H]4O)cc3)nn2)cc1 [Compound 16a, N^1-(4-(1-(4-sulfamoylphenyl)-1H-1,2,3-triazol-4-yl)phenyl)-N^4-((2R,3R,4S,5S,6R)-3,4,5-trihydroxy-6-(hydroxymethyl)tetrahydro-2H-pyran-2-yl)succinamide] | 85.1 ± 1.68 | 88.9 ± 1.71 | 20 | 82.6 ± 1.92 | 83.3 ± 2.09 | improve the extracellular pH | 6.9 | 7.04 | 7.31 | 7.21 | improve the extracellular pH | 6.88 | 6.97 | 7.26 | 7.13 | 27.7 | 135 | 51.6 |  |  | effect on tumour cell migration (MDA-MB-231 cells [1]; at 72 h): could hardly be detected; effect on tumour cell migration (MDA-MB-231 cells [1]; first 24 h, vs blank group): slight inhibitory effect
NS(=O)(=O)c1ccc(-n2cc(-c3cccc(NC(=O)CCC(=O)N[C@@H]4O[C@H](CO)[C@@H](O)[C@H](O)[C@H]4O)c3)nn2)cc1 [Compound 16b, N^1-(3-(1-(4-sulfamoylphenyl)-1H-1,2,3-triazol-4-yl)phenyl)-N^4-((2R,3R,4S,5S,6R)-3,4,5-trihydroxy-6-(hydroxymethyl)tetrahydro-2H-pyran-2-yl)succinamide] | 86.5 ± 1.92 | 90.5 ± 0.965 | 20 | 81.1 ± 2.43 | 89.67 ± 0.554 | improve the extracellular pH | 6.88 | 7.02 | 7.20 | 7.20 | improve the extracellular pH | 6.82 | 6.96 | 7.27 | 7.15 | 13.3 | 256 | 86.6 | 76.6 ± 3.51 | 81.6 ± 3.34 | inhibition of MG-63 cell viability (MG-63 cells; MG-63, normoxia and hypoxia): concentration-dependent
CC(=O)Nc1nnc(S(N)(=O)=O)s1 [AZM, acetazolamide, reference compound] | 85.2 ± 1.96 | 96.2 ± 2.28 |  | 89.53 ± 0.161 | 91.7 ± 2.59 |  | 6.97 | 7.05 |  | 7.23 |  | 6.90 | 6.97 | 7.28 | 7.26 |  |  |  | 81.7 ± 1.17 | 87.1 ± 1.94 | 
Cc1cc(-c2cn(-c3ccc(S(N)(=O)=O)cc3)nn2)ccc1NC(=O)CCC(=O)N[C@@H]1O[C@H](CO)[C@@H](O)[C@H](O)[C@H]1O [Compound 16e, N^1-(2-methyl-4-(1-(4-sulfamoylphenyl)-1H-1,2,3-triazol-4-yl)phenyl)-N^4-((2R,3R,4S,5S,6R)-3,4,5-trihydroxy-6-(hydroxymethyl)tetrahydro-2H-pyran-2-yl)succinamide] | 90.6 ± 2.76 | 87.2 ± 2.28 |  | 87.7 ± 1.79 | 91.5 ± 2.64 |  |  |  |  |  |  |  |  |  |  | 41.6 | 162 | 84.7 |  |  | 
COc1cc(-c2cn(-c3ccc(S(N)(=O)=O)cc3)nn2)ccc1NC(=O)CCCC(=O)N[C@@H]1O[C@H](CO)[C@@H](O)[C@H](O)[C@H]1O [Compound 16m, N^1-(2-methoxy-4-(1-(4-sulfamoylphenyl)-1H-1,2,3-triazol-4-yl)phenyl)-N^5-((2R,3R,4S,5S,6R)-3,4,5-trihydroxy-6-(hydroxymethyl)tetrahydro-2H-pyran-2-yl)glutaramide] |  |  |  |  |  |  |  |  |  |  |  |  |  |  |  | 88.1 | 146 | 99.6 |  |  | 
